# “And” between values parts separate entries of the source, which are not always exact repeats. Equal entries are not always repeated. “Also recorded” adds a separate entry of the source.
# How the values were obtained:
# [1] = Pharmacokinetics of [3H]-FTS in the mouse brain; format: in vivo; settings: [3H]-FTS 3 mg/kg i.p.
# Method: Farnesyl 1-^3H-thiosalicylic acid ([^3H]-FTS), 12.5 Ci/mmol, 1 mCi/mL, was purchased from American Radiolabeled Chemicals (ARC; St. Louis, Mo., U.S.A.). The labeled drug was isotopically diluted with unlabeled FTS. Mice (ICR strain) were injected i.p. with 0.1 ml of this FTS solution (14.8 μCi, 351 nmol, 3 mg/kg). At each time point (2.5, 5, 10, 20, 60, and 120 min) after the injection, two mice were killed and their brains were removed. The forebrains were washed in PBS, weighed and homogenized, and samples were counted in a scintillation fluid using an LKB β-counter with automatic correction for quenching. Data are expressed as [^3H]-FTS in dpm/g tissue as a function of time.
# First it was necessary to determine whether FTS can enter the brain, and if so, whether it can exist there in the micromolar concentration range previously found to be relevant to its efficacy as a Ras inhibitor in vitro (Kloog et al. 1999). To this end, we performed pharmacokinetic experiments in which mice received [^3H]-FTS (3 mg/kg, i.p.), and the amounts of labeled inhibitor in the brain were then determined by counting radioactivity in samples of brain homogenates. […] Based on the specific activity of [^3H]-FTS and assuming a homogeneous distribution in the brain, we estimated that the peak concentration of FTS was 4.5 μM. Thus, under the conditions employed here, it appears that a pharmacologically relevant concentration of FTS in the brain was achieved.
# [2] = cited from earlier work
# [3] = system: primary hippocampal and cortical neuronal cultures; format: cell-based, rat
# Method: Hippocampal and cortical neuronal cultures were prepared from embryonic rat brain essentially as described by Mattson (Mattson P M, Barger S W, Begley J M and Mark R J, Methods Cell Biol 1995; 46: 187-216). Briefly, Sprague Dawley embryos (17-18 days of gestation) were removed and their brains were dissected under the hood and kept in cold in sterile HEPES buffered Hank's balanced salt solution (HBBS) lacking Ca^2+ and Mg^2+, containing 10 μg/ml gentamicin sulfate. The brain regions under study were dissected and cells were dissociated by mild 0.25% trypsin, counted and the dissociation buffer was replaced by culture medium as detailed in Mattson. The cells were plated on poly-L-lysine ([…] solution) coated 24 well plates in Neurobasal medium (Gibco, Grand Island, N.Y. # 2110 3-049) prepared as detailed in Mattson. Hippocampal or cortical cells were plated at a density of 5×10^5 cells per well in 24 well plates and grown in 1 ml medium. Cultures were a kept in humidified 95%, 5% air/CO2 incubator at 37 C for 7 days and then used for the experiments.
# Cells were treated with 25 μM FTS either 24 h prior to glutamate (200 μM) treatment or immediately after glutamate treatment. Assays were performed in triplicates. Twenty-four hours after the glutamate treatment, the cells were subjected to viability-cytotoxicity assay using the Live/Dead reagent kit (L-7013, Molecular Probes) essentially as described by the manufacturer. Fluorescent images for live cells (Syto 10, green) and of dead cells (DEAD red) were collected with appropriate filters within 1 h of staining. The number of live cells was estimated by counting the green-labeled cells in 3 fields in each well. The number of live cells in each of the triplicate experimental samples was averaged. These values were used to estimate the percent of cell death comparing the glutamate treated cells (with or without FTS) to untreated controls. The read labeled dead cells could not be used for accurate estimation of cell death under the conditions used because unsynchronized cell-death leads to disintegration of dead cells resulting in inaccurate estimation of the number of dead cells.
# In the typical experiments, either hippocampal or cortical neuronal culture was exposed to 25 μM FTS 24 h prior to the addition of glutamate. […] The cells were then exposed to 200 μM glutamate for 30 min. The medium was replaced by glutamate-free medium and 24 h later the cells were subjected to the Live/Dead assay. […] This level of cell death was used as a reference point in all experiments.
# phospho-ERK = assay: ERK and phospho-ERK immunoblot in brains of CHI mice; format: in vivo, mouse; settings: 2 hrs after CHI
# Method: ERK and phospho-ERK were determined in 30 μg of brain extract proteins by immunoblotting, ECL, and densitometry (Paz et al., 2000). ERK immunoblots were incubated with 1:2000 rabbit anti-ERK1/2 Ab (Santa-Cruz) and then with 1:1000 peroxidase-goat anti rabbit IgG. Phospho-ERK immunoblots were incubated with 1:10,000 mouse anti-phospho-ERK Ab (Sigma) and then with 1:10,000 peroxidase-goat anti-mouse IgG.
# [4] = 25 μM FTS 24 h prior to 200 μM glutamate for 30 min, Live/Dead assay 24 h later
smiles,measurement,setting,value
"CC(C)=CCC/C(C)=C/CC/C(C)=C/CSc1ccccc1C(=O)O [FTS, farnesyl-thiosalicylic acid]",entry of FTS into the brain,[1]; mouse,enters the mouse brain; also recorded: crosses the blood-brain barrier
same,time for which FTS amounts in the brain remain relatively high,[1]; mouse forebrain,at least 2 hrs
same,time to peak amounts of FTS in the brain,[1]; mouse forebrain,20 to 30 min
same,peak concentration of FTS in the brain,[1]; estimated from specific activity assuming homogeneous distribution in the brain,4.5 µM
same,side effects at the 5 mg/kg dose in animal models of neoplasticity,"[2]; 5 mg/kg FTS, previous studies (Jansen et al., 1999; Kloog et al., 1999)",without inadvertent side effects
same,toxicity and adverse side effects in animals,"[2]; Kloog et al., 1999",not to be toxic and have no adverse side effects
same,toxic effects of FTS alone on cultured hippocampal or cortical neurons,[3],no toxic effects
same,toxic effect of glutamate in cortical cultures,[3]; [4],reduced the toxic effect of glutamate
same,toxic effect of glutamate in hippocampal cultures,[3]; [4],markedly reduced
same,neuroprotective effect against the glutamate toxicity,"[3]; hippocampal and cortical cultures, 25 μM FTS 24 h prior to 200 μM glutamate",70%
same,percent cell death relative to glutamate treated cells (100% cell death),"[3]; hippocampal and cortical cultures, 25 μM FTS 24 h prior to 200 μM glutamate, FIG. 10",30%
same,effect on amounts of total ERK,phospho-ERK,Neither inhibitor altered
same,"inhibition (reduction) of phospho-ERK, right (contra-lateral) hemisphere","phospho-ERK; drug i.p. 1 hr after CHI, FTS 5 mg/kg, MK-801 0.5 mg/kg or 1 mg/kg",73.2±8.3% and 73±8%

# Source: patent US20070054886A1, “Ras antagonists for treating neurodegenerative disorders” (RAMOT AT TEL AVIV UNIVERSITY, LTD., priority 2003, published 2007)
